From patent US20260234161A1, “RIFABUTIN ANALOGS FOR THE TREATMENT OF BACTERIAL DISEASES” (BIOVERSYS AG, priority 2023, published 2026)
Converted amounts (≈) assume the structure as drawn.

Key:
Assay type in all cases: cell-based
[1] = tested on: A. baumannii (HUMC1 strain); assay: MIC by broth microdilution, A. baumannii (RPMI + 10% FCS); conditions: Acinetobacter baumannii; HUMC1 strain; RPMI medium + 10% FCS; 35° C., 20 hours; read-out: MIC A. baumannii
Experimental: (§1) MIC values were determined by broth microdilution method according to the CLSI guidelines with the following exceptions: MIC against A. baumannii was performed in RPMI medium supplemented with 10% FCS and MIC against M. abscessus was performed in Middlebrook 7H9 broth supplemented with Middlebrook ADC growth supplement (10%; see column “M. abscessus 7H9”). MIC forM abscessus was determined a second time in standard cation adjusted Mueller Hinton broth without growth supplement (see colum “M. abscessus MH”). All other MIC were performed in standard cation adjusted Mueller Hinton broth, supplemented with Middlebrook ADC growth supplement (5%) for the slow growing mycobacteria (M. xenopi, M. kansasii and M. avium).
(§2) The following procedure applies to all species tested, except forM xenopi. From a fresh culture plate (from overnight to several days depending on the bacteria), cells were resuspended in 0.9% (w/v) saline solution and bacterial inoculum was prepared in the respective testing medium with 5×10^5 CFU/mL. For M. xenopi, the inoculum was prepared from a fresh liquid culture (7H9+ADC). The appropriate volumes of a 10 mg/mL compound solution were directly dispensed in the 96-well assay plate using a digital dispenser to create two-fold dilution series from 32 to 0.002 μg/mL final concentration for A. baumannii and S. aureus; from 16 to 0.016 μg/mL for M. abscessus and M. avium; and from 1 to 6×10^−5 μg/mL for M. kansasii and M. xenopi. 100 μL of bacterial suspension was finally added to the compounds. Plates were covered and incubated without shaking at 35° C. for 20 hours for A. baumanii and S. aureus; at 30° C. for 4 days for M. abscessus; and at 37° C. for 7 days (at least) for M. kansasii (covered with aluminum foil to avoid light exposure), M. avium and M. xenopi. Every experiment contained an antibiotic as quality control. MIC was determined visually as the lowest concentration of a compound that prevents visible growth of the bacteria.
(§3) The in vitro activity of compounds described herein was determined against S. aureus (UAMS-1625 strain), A. baumannii (HUMC1 strain), M. abscessus (ATCC 19977), M. kansasii (ATCC 12478), M. avium (ATCC 25291), and M. xenopi (ATCC 19250).

[2] = tested on: M. abscessus (ATCC 19977); assay: MIC by broth microdilution, M. abscessus in cation adjusted Mueller Hinton broth; conditions: Mycobacteroides abscessus, ATCC19977, 96 h; ATCC 19977; cation adjusted Mueller Hinton broth without growth supplement; 30° C., 4 days; read-out: MIC M. abscessus MH
Experimental: as §1, §2, §3

[3] = tested on: S. aureus (UAMS-1625 strain); assay: MIC by broth microdilution, S. aureus; conditions: Staphylococcus aureus, 20 h, read-out: MIC S. aureus
Experimental: as §1, §2, §3

| SMILES | MIC [1] | MIC [2] | MIC [3] |
| --- | --- | --- | --- |
| CO[C@H]1/C=C/O[C@@]2(C)Oc3c(C)c(O)c4c(c3C2=O)C2=NC3(CCN(CC(C)C)CC3)NC2=C(NC(=O)/C(C)=C\C=C\[C@H](C)[C@H](O)[C@@H](C)[C@@H](O)[C@@H](C)[C@H](OC(=O)N2CCN(CCc3ccccc3)CC2)[C@@H]1C)C4=O [Compound 46] | 0.25 µg/mL | 0.5 µg/mL (≈ 0.49 µM) | 0.25 µg/mL (≈ 0.245 µM) |
| COCCN1CCN(C(=O)O[C@H]2[C@H](C)[C@H](O)[C@H](C)[C@@H](O)[C@@H](C)/C=C/C=C(/C)C(=O)NC3=C4NC5(CCN(CC(C)C)CC5)N=C4c4c(c(O)c(C)c5c4C(=O)[C@@](C)(O/C=C/[C@H](OC)[C@H]2C)O5)C3=O)CC1 [Compound 48] | ≤ 0.016 µg/mL | 1 µg/mL (≈ 1.03 µM) | 0.06 µg/mL (≈ 0.0615 µM) |
| CO[C@H]1/C=C/O[C@@]2(C)Oc3c(C)c(O)c4c(c3C2=O)C2=NC3(CCN(CC(C)C)CC3)NC2=C(NC(=O)/C(C)=C\C=C\[C@H](C)[C@H](O)[C@@H](C)[C@@H](O)[C@@H](C)[C@H](OC(=O)N2CCN(CC(C)(C)C)CC2)[C@@H]1C)C4=O [Compound 49] | 1 µg/mL | 0.125 µg/mL (≈ 0.127 µM) | 0.5 µg/mL (≈ 0.506 µM) |
| CO[C@H]1/C=C/O[C@@]2(C)Oc3c(C)c(O)c4c(c3C2=O)C2=NC3(CCN(CC(C)C)CC3)NC2=C(NC(=O)/C(C)=C\C=C\[C@H](C)[C@H](O)[C@@H](C)[C@@H](O)[C@@H](C)[C@H](OC(=O)N2CCNCC2)[C@@H]1C)C4=O [Compound 51] | ≤ 0.001 µg/mL | 4 µg/mL (≈ 4.36 µM) | 0.016 µg/mL (≈ 0.0174 µM) |
| CO[C@H]1/C=C/O[C@@]2(C)Oc3c(C)c(O)c4c(c3C2=O)C2=NC3(CCN(CC(C)C)CC3)NC2=C(NC(=O)/C(C)=C\C=C\[C@H](C)[C@H](O)[C@@H](C)[C@@H](O)[C@@H](C)[C@H](OC(=O)N2CCN(CCC(C)C)CC2)[C@@H]1C)C4=O [Compound 52] | 0.06 µg/mL | 0.125 µg/mL (≈ 0.127 µM) | 0.25 µg/mL (≈ 0.253 µM) |
| CO[C@H]1/C=C/O[C@@]2(C)Oc3c(C)c(O)c4c(c3C2=O)C2=NC3(CCN(CC(C)C)CC3)NC2=C(NC(=O)/C(C)=C\C=C\[C@H](C)[C@H](O)[C@@H](C)[C@@H](O)[C@@H](C)[C@H](OC(=O)N2CCN(CC3CCOCC3)CC2)[C@@H]1C)C4=O [Compound 53] | 0.004 µg/mL | 0.125 µg/mL (≈ 0.123 µM) | 0.125 µg/mL (≈ 0.123 µM) |
| CO[C@H]1/C=C/O[C@@]2(C)Oc3c(C)c(O)c4c(c3C2=O)C2=NC3(CCN(CC(C)C)CC3)NC2=C(NC(=O)/C(C)=C\C=C\[C@H](C)[C@H](O)[C@@H](C)[C@@H](O)[C@@H](C)[C@H](OC(=O)N2CCN(CC(C)C)CC2)[C@@H]1C)C4=O [Compound 54] | 0.03 µg/mL | 0.06 µg/mL (≈ 0.0617 µM) | 0.125 µg/mL (≈ 0.128 µM) |
| CO[C@H]1/C=C/O[C@@]2(C)Oc3c(C)c(O)c4c(c3C2=O)C2=NC3(CCN(CC(C)C)CC3)NC2=C(NC(=O)/C(C)=C\C=C\[C@H](C)[C@H](O)[C@@H](C)[C@@H](O)[C@@H](C)[C@H](OC(=O)N2CCN(Cc3ccco3)CC2)[C@@H]1C)C4=O [Compound 55] | ≤ 0.016 µg/mL | 2 µg/mL (≈ 2.01 µM) | 0.125 µg/mL (≈ 0.125 µM) |
| CO[C@H]1/C=C/O[C@@]2(C)Oc3c(C)c(O)c4c(c3C2=O)C2=NC3(CCN(CC(C)C)CC3)NC2=C(NC(=O)/C(C)=C\C=C\[C@H](C)[C@H](O)[C@@H](C)[C@@H](O)[C@@H](C)[C@H](OC(=O)N2CCN(c3nccs3)CC2)[C@@H]1C)C4=O [Compound 57] | 0.03 µg/mL | 0.5 µg/mL (≈ 0.5 µM) | 0.06 µg/mL (≈ 0.06 µM) |
| CO[C@H]1/C=C/O[C@@]2(C)Oc3c(C)c(O)c4c(c3C2=O)C2=NC3(CCN(CC(C)C)CC3)NC2=C(NC(=O)/C(C)=C\C=C\[C@H](C)[C@H](O)[C@@H](C)[C@@H](O)[C@@H](C)[C@H](OC(=O)N2C[C@@H]3C[C@H]2CN3CC2CCCCC2)[C@@H]1C)C4=O [Compound 58] | 0.03 µg/mL | 0.125 µg/mL (≈ 0.122 µM) | 0.125 µg/mL (≈ 0.122 µM) |
| CCCN1CCN(C(=O)O[C@H]2[C@H](C)[C@H](O)[C@H](C)[C@@H](O)[C@@H](C)/C=C/C=C(/C)C(=O)NC3=C4NC5(CCN(CC(C)C)CC5)N=C4c4c(c(O)c(C)c5c4C(=O)[C@@](C)(O/C=C/[C@H](OC)[C@H]2C)O5)C3=O)CC12CC2 [Compound 59] | 0.03 µg/mL | 0.125 µg/mL (≈ 0.127 µM) | 0.25 µg/mL (≈ 0.254 µM) |
| CO[C@H]1/C=C/O[C@@]2(C)Oc3c(C)c(O)c4c(c3C2=O)C2=NC3(CCN(CC(C)C)CC3)NC2=C(NC(=O)/C(C)=C\C=C\[C@H](C)[C@H](O)[C@@H](C)[C@@H](O)[C@@H](C)[C@H](OC(=O)N2CCCN(C3CCCC3)CC2)[C@@H]1C)C4=O [Compound 60] | ≤ 0.016 µg/mL | 0.25 µg/mL (≈ 0.25 µM) | 0.06 µg/mL (≈ 0.06 µM) |
